{
  "source": "paper PMC4440699",
  "about": "(MedChemComm, 2014)",
  "key": {"HDAC10": {"target": "T1, HDAC10 (Homo sapiens, UniProt Q969S8)", "T1 sequence (Q969S8 1-669)": "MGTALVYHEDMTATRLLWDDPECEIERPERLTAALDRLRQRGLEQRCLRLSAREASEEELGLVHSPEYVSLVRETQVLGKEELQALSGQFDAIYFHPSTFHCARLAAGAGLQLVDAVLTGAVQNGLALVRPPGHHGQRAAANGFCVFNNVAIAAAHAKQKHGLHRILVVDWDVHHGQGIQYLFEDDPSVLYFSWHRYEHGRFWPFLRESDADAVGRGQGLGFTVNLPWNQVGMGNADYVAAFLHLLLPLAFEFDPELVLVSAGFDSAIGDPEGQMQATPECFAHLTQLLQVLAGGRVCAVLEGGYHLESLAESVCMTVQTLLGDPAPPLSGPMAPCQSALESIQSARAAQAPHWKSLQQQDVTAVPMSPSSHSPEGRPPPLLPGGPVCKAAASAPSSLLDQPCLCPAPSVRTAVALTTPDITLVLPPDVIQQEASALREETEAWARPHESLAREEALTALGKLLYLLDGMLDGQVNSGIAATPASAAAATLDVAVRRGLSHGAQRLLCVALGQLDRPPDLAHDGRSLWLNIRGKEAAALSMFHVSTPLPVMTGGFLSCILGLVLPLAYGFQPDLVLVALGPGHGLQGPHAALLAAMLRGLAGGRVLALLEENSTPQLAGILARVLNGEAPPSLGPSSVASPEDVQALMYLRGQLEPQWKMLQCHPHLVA", "experiment": "HDAC10 inhibition, human recombinant HDAC isoform survey", "format": "biochemical", "conditions": "from % inhibition at 20 μM"}, "HDAC1": {"target": "HDAC1 (Homo sapiens, UniProt Q13547)", "sequence (Q13547 whole entry, canonical isoform)": "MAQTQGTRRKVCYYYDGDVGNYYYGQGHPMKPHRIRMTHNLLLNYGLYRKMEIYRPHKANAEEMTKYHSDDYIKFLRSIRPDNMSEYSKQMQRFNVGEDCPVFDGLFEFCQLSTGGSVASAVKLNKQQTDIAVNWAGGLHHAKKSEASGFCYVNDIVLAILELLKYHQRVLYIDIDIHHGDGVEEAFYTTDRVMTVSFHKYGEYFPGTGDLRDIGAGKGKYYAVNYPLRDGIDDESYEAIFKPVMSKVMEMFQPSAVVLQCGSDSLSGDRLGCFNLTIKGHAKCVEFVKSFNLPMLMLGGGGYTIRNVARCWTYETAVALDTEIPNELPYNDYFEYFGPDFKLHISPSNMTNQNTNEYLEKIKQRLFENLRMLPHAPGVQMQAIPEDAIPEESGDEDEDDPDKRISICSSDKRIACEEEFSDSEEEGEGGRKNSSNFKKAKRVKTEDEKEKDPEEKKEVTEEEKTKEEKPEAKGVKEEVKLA", "experiment": "HDAC1 inhibition, human recombinant HDAC isoform survey", "format": "biochemical"}, "HDAC8": {"target": "T2, HDAC8 (Homo sapiens, UniProt Q9BY41)", "T2 sequence (Q9BY41 1-377)": "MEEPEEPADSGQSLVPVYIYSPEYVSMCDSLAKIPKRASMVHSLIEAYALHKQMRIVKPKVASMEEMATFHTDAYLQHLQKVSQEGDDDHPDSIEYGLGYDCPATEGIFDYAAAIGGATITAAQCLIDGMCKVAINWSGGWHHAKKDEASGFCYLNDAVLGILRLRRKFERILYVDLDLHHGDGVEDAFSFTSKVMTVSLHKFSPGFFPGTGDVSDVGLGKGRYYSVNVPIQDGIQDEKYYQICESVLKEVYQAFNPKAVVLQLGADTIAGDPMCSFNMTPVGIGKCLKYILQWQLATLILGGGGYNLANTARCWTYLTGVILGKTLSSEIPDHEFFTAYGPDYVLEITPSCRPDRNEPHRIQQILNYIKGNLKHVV", "experiment": "HDAC8 inhibition, human recombinant HDAC isoform survey", "format": "biochemical"}, "MV-4-11 leukemia cells": {"test_system": "MV-4-11 leukemia cells", "experiment": "Growth inhibition of cultured MV-4-11 leukemia cells", "format": "cell-based", "conditions": "for growth inhibitor activity in the MV-4-11 cell line: 24 hours exposure, 1 to 100 μM"}, "p21^WAF1/CIP1": {"test_system": "p21^WAF1/CIP1", "experiment": "p21WAF1/CIP1 levels in MV-4-11 leukemia cells by Western blotting", "format": "cell-based", "conditions": "MV-4-11 cells"}, "[1]": {"experiment": "Zinc binding affinity by isothermal calorimetry", "conditions": "ITC, 25 °C"}, "Solubility observations": {"experiment": "Solubility observations", "format": "physicochemical", "conditions": "greater concentration required more than 1% DMSO"}, "acetylated H3K9": {"test_system": "acetylated H3K9", "conditions": "MV-4-11 cells"}},
  "data": [
    {"compound": "O=C(CNC(=O)c1coc(-c2ccccc2O)n1)Nc1ccccc1", "note": "[Compound 24]", "values": [
      {"measurement": "isoform selectivity", "setting": "HDAC10", "value": "moderately selective for HDAC10"}
    ]},
    {"compound": "O=C(NC(c1ccccc1)c1ccccc1)c1coc(-c2ccccc2O)n1", "note": "[Compound 10]", "values": [
      {"measurement": "IC50", "setting": "HDAC1", "value": "< 20", "unit": "µM"},
      {"measurement": "inhibitory activity against HDAC8", "setting": "HDAC8", "value": "very poor inhibitory activity"},
      {"measurement": "difference in cellular IC50 value against MV4-11 cells between SAHA and compound 10", "setting": "MV-4-11 leukemia cells; SAHA 0.7 μM vs 10 7.5 μM", "value": 10.7, "unit": "fold"},
      {"measurement": "amount of p21Waf1/CIP1 induced relative to 0.5 μM of SAHA", "setting": "p21^WAF1/CIP1", "value": "comparable amount"},
      {"measurement": "p21^WAF1/CIP1 expression", "setting": "p21^WAF1/CIP1; concentrations between 1.0 and 10.0 μM", "value": "dose-dependent increase"},
      {"measurement": "ΔG, binding to Zn^++", "setting": "[1]", "value": -5.103, "unit": "kcal/mol"},
      {"measurement": "KA, binding to Zn^++", "setting": "[1]; compound in methanol, zinc in 50mM HEPES pH 7.0", "value": "4,937 M^-1"},
      {"measurement": "solution concentration attainable without more than 1% DMSO", "setting": "Solubility observations", "value": "≤ 20", "unit": "µM"},
      {"measurement": "amount of acetylated H3K9 induced relative to 0.5 μM of SAHA", "setting": "acetylated H3K9", "value": "comparable amount"},
      {"measurement": "concentration producing an increase in H3K9 acetylation equivalent to 0.5 μM SAHA", "setting": "acetylated H3K9; Western blot", "value": 2.5, "unit": "µM"},
      {"measurement": "concentration with measurable increase in cellular levels of acetylated H3K9", "setting": "acetylated H3K9; Western blot", "value": "≥ 2.5", "unit": "µM"},
      {"measurement": "change in H3K9 acetylation", "setting": "acetylated H3K9; concentrations between 1.0 and 10 μM", "value": "dose-dependent change in acetylation"}
    ]},
    {"compound": "O=C(NCCCCNC(=S)NCCC(c1ccccc1)c1ccccc1)c1coc(-c2ccccc2O)n1", "note": "[Compound 19]", "values": [
      {"measurement": "isoform selectivity", "setting": "HDAC10", "value": "moderately selective for HDAC10"}
    ]},
    {"compound": "O=C(NCCC(c1ccccc1)c1ccccc1)c1coc(-c2ccccc2O)n1", "note": "[Compound 12]", "values": [
      {"measurement": "growth inhibitor activity in the MV-4-11 cell line", "setting": "MV-4-11 leukemia cells", "value": "inactive"}
    ]},
    {"compound": "O=C(Nc1ccccc1)c1ccc(CNC(=O)c2coc(-c3ccccc3O)n2)cc1", "note": "[Compound 23]", "values": [
      {"measurement": "isoform selectivity", "setting": "HDAC10", "value": "moderately selective for HDAC10"}
    ]},
    {"compound": "O=C(NCc1ccc(-c2ccccc2)cc1)c1coc(-c2ccccc2O)n1", "note": "[Compound 14]", "values": [
      {"measurement": "growth inhibitor activity in the MV-4-11 cell line", "setting": "MV-4-11 leukemia cells", "value": "inactive"}
    ]},
    {"compound": "O=C(Nc1ccc(-c2ccccc2)cc1)c1coc(-c2ccccc2O)n1", "note": "[Compound 13]", "values": [
      {"measurement": "growth inhibitor activity in the MV-4-11 cell line", "setting": "MV-4-11 leukemia cells", "value": "inactive"}
    ]}
  ]
}
